Data set [1] concerns Human leukemia cell line K562. The experiment in a line: MTT assay, inhibition of cell growth. The data set is classed as cell-based. The note with it: Homo sapiens, K562; 30 μg/ml; 24 hours; dissolved with NaOH solution, pH 7.5; read-out: Inhibitory rate (%) on K562 cell growth. Here is the method: MTT assay was performed to test the cytotoxicity. The K562 and SGC7901 cells were maintained in exponential growth in RPMI 1640 medium supplemented with 15% heat-inactivated newborn calf serum. The cells were plated at a density of 2×10^4 cells/100 μl medium/well into 96-well plate with medium containing samples in five final concentrations (7.5, 15, 30, 60 and 90 μg/ml) for iso-C15 (either synthesized or extracted) and one final concentration (30 μg/ml) for the others. The media in control wells contained no samples. The cells were incubated at 37° C. in a highly humidified incubator under 5% CO2 atmosphere for 24 hours. The supernatant was removed by fast inversion of the plate. 20 μl of 5 mg/ml MTT solution were added into each well. Incubation was continued for 4 hours. DMSO 100 μl/well was added and the plate was vibrated for 10 minutes. A570nm was read at the Immunoreader BioTek EL311S.
The inhibition rate (%)=1−(mean A570nm in test wells/mean A570nm in control wells)
In general terms: Tetrazolium dyes change colour on reduction, which living cells bring about.

Data set [2] concerns SNU-423 human hepatocellular carcinoma cells. The experiment in a line: Apoptosis morphology, light microscope. In kind it is cell-based. The note with it: 60 μg/ml, 24 hours. Here is the method:
(§1) Human cancer cell lines DU-145 (prostate cancer), K562 (leukemia), HCT116 (colon cancer), H1688 (lung cancer), SUN423 (hepatocarcinoma), MCF7 (breast cancer), CRL-1687 (pancreatic cancer), and SUN-1 (gastric cancer) were obtained from American Type Culture Collection (ATCC). 30 ml blood was collected from a health person and normal peripheral mononuclear cells were separated by Ficoll separation solution (Sigma). All cells were maintained in RPMI 1640, DMEM, or McCoy medium supplemented with 10% FCS, […] streptomycin and 100 u/ml penicillin. Normal human peripheral mononuclear cells, K562 and SUN-1 were suspended cells. After spinning at 1,500 RPM for 5 min, supernatants were discharged and cells were resuspended and expended in fresh medium. The other tumor cell lines were adherent cells and were dispersed with 0.05% trypsin/0.01% EDTA (Irvine Scientific, CA) for expansion. Cells were seeded in T75 flasks at 2×10^6 cells/flask in culture medium supplemented with 10% fetal bovine serum and incubated overnight at 37° C. with 5% CO2. […] Cells were then prepared for flow cytometry analysis, in situ cell death detection, DNA fragmentation and Western blot assay followed the preparation methods for each assay. Cell pellets treated for 2 and 4 hr with either iso-C15 or control were also stored at −70° C. for future studies of gene regulation. […]

For data set [3], the system named is SNU-1 human gastric carcinoma cell lines. Description: Apoptosis morphology, H&E, light microscope. In kind it is cell-based. The note with it: 60 μg/ml, 8 hours. Here is the method:
as §1

Data set [4] deals with MCF-7 human breast adenocarcinoma cells. Description: Flow cytometry annexin V / PI apoptosis detection. The data set is classed as cell-based. The note with it: 60 μg/ml. The method, then:
Human cancer cell lines DU-145 (prostate cancer), K562 (leukemia), HCT116 (colon cancer), H1688 (lung cancer), SUN423 (hepatocarcinoma), MCF7 (breast cancer), CRL-1687 (pancreatic cancer), and SUN-1 (gastric cancer) were obtained from American Type Culture Collection (ATCC). 30 ml blood was collected from a health person and normal peripheral mononuclear cells were separated by Ficoll separation solution (Sigma). All cells were maintained in RPMI 1640, DMEM, or McCoy medium supplemented with 10% FCS, […] streptomycin and 100 u/ml penicillin. Normal human peripheral mononuclear cells, K562 and SUN-1 were suspended cells. After spinning at 1,500 RPM for 5 min, supernatants were discharged and cells were resuspended and expended in fresh medium. The other tumor cell lines were adherent cells and were dispersed with 0.05% trypsin/0.01% EDTA (Irvine Scientific, CA) for expansion. Cells were seeded in T75 flasks at 2×10^6 cells/flask in culture medium supplemented with 10% fetal bovine serum and incubated overnight at 37° C. with 5% CO2. The adherent cells attached to the plate were striped with disposable cell scrapers (Fisher Scientific) after treated either with 1% iso-C15, anteiso-C15 or control solution for 1, 2, 4, 8 and 24 hours and then combined with respective float cells. Cells were then prepared for flow cytometry analysis, in situ cell death detection, DNA fragmentation and Western blot assay followed the preparation methods for each assay. Cell pellets treated for 2 and 4 hr with either iso-C15 or control were also stored at −70° C. for future studies of gene regulation.
A flow cytometer (FACScan) with Consort 30 software for gating analysis (Becton Dickinson, San Jose, Calif.) was used. The Apoptosis Detection kit (R&D Systems) was used to quantitatively determine the percentage of cells undergoing apoptosis by virtue of their ability to bind annexin V and exclude propidium iodide (PI). Cells were washed in cold PBS twice and resuspended in binding buffer. Fluorescent-labeled annexin V and PI were added to the cells. The cells undergoing apoptosis, expressing phosphotidyiserine on the outer leaflet of cell membranes, would bind annexin V. The cells in later stage of apoptosis or necrosis, with a compromised cell membrane, would allow PI to bind to the cellular DNA. The resulting cells were immediately analyzed by flow cytometer equipped with a single laser emitting excitation light at 488 nm. The annexin V and PI generated signals can be detected in signal detector FL1 and FL2, respectively. […]
(A flow cytometer gives signals particle by particle.)

Data set [5] relates to Human gastric adenocarcinoma SGC-7901 xenograft. The experiment in a line: Human gastric adenocarcinoma SGC-7901 xenografted into nude mice. The note with it: MMC 2.0 mg/kg i.p. Qd × 14. The data set is classed as in vivo, Balb/c-nu/nu athymia mice. Here is the method: Female Balb/c-nu/nu athymia mice, 6 weeks old, weighing 18–22 g, housed in specific pathogen free (SPF) condition throughout the course of experiment; concentrated Q-can oral liquid contains 3.6 mg/ml specific branched-chain fatty acids; the drug used for positive control mitomycin C (MMC) was commercially available from Kyowa Hakko Kogyo Co., Ltd., Japan.
Human gastric adenocarcinoma SGC-7901 xenograft was established and maintained. For the experiment, the xenograft fragments of diameter of about 2 mm were inoculated subcutaneously into the right submaxillary regions of nude mice. The animals were randomly divided into five groups five days after inoculation. […] groups, respectively, while concentrated Q-can oral liquid was given in test groups once a day p.o., starting on the same day, at daily doses of 18, 36 and 72 mg branched-chain fatty acids per kg weight, respectively, for 14 days. Experiment was terminated 20 days post-implantation, and mice were sacrificed by spinal elongation. Tumors were removed and the weights of treated versus control tumors were compared. Inhibition rate was calculated. The experiment was repeated once.
A general note: Xenograft models place foreign cells or tissue in a host animal.

For data set [6], the system named is mouse liver cancer HAC cell line. The experiment in a line: Enhancement of effectiveness of CP, mouse liver cancer HAC ascites model. The data set is classed as in vivo, Kunming mice. The note with it: CP 50 mg/kg i.p. only (positive control). The method, then: Q-can oral liquid; mouse liver cancer HAC cell line; male Kunming mice weighing 20–25 g; commercial cyclophosphamide (CP).
Forty mice were randomly divided into 5 groups. In three test groups, 36%, 60% and 100% Q-can oral liquids (diluted with water) were given, respectively, while water was given in both control groups. On the 8th day, 0.2 ml HAC cancer cell suspensions (10^7/ml) were injected into the abdominal cavities of each mouse under aseptic condition. On the 1st, 3rd and 5th days after injection. CP (50 mg/kg) was injected i.p. into the mice in all test groups and positive control group. From the 9th day after injection, normal feeding was resumed as before the test. Date of death of each mouse was recorded, and the average life span and the rate of increase in life span were calculated. The rate of increase in life span (ILS %) is defined as following: […]

Another data set relates to Lewis mouse lung tumor. Here is the method:
Concentrated Q-can oral liquid (containing specific branched-chain fatty acids 3.6 mg/ml); Female F1 mice (C57/B1 and DBA/2) weighing 18–22 g; Lewis mouse lung tumor.
The mice of the test group were administrated with concentrated Q-can oral liquid at a daily dose of 36 mg specific branched-chain fatty acids per kg weight for 10 days before transplantation of Lewis mouse lung tumor. All the mice were transplanted subcutaneously in the subaxillary region with a piece of Lewis tumor of approximately 2 mm in diameter. The treatments of intraperitoneal injection of chemotherapy drug Cytoxan (CTX) in 30 mg/kg were given once a day after transplantation over an 8 day period for the positive control group. The treatments for the normal control group were daily injection of normal saline for 8 days. The administration of concentrated Q-can oral liquid for the test group was initiated 10 days before tumor transplantation and continued for another 8 days. Finally all the animals were sacrificed by spinal elongation. Tumors were excised and body and tumor weights were recorded.

[7] abbreviates: CTX 30 mg/kg i.p. once a day, 8 days.

Molecules are shown by their SMILES.

As for `CC(C)CCCCCCCCC(=O)O` [iso-C12, 10-methylundecanoic acid], in data set [1], the inhibition at 30 µg/mL was found to be 70.7%.
Consider `CCC(C)CCCCCCCCCCC(=O)O` (stereo not drawn) [anteiso-C15, 12-methyltetradecanoic acid], for which the inhibition at 30 µg/mL in data set [1] stood at 73.1%. For the same molecule, the “morphological changes indicative of apoptosis” value in data set [2] was “exhibited cell volume decrease due to shrinkage and bubbles inside the cell”; in data set [3] it was “chromatin condensation and cytoplasmic granularity were noted”. In addition, the “FL1/FL2 pattern (annexin V / PI), apoptosis” value is on record as “many cells were undergoing apoptosis” in data set [4] (4 hours) and “the majority of cells had already died” in data set [4] (24 hours).
Regarding `CC(C)CCCCCCCCCCCCC(=O)O` [iso-C16, 14-methylpentadecanoic acid], in data set [1], the inhibition at 30 µg/mL came to 71.6%.
As for `CC(C)CCCCCCCCCCCCCCC(=O)O` [iso-C18, 16-methylheptadecanoic acid], the inhibition at 30 µg/mL in data set [1] came to 68.4%.
With `CCC(C)CCCCCCCCCCCC(=O)O` (stereo not drawn) [anteiso-C16, 13-methylpentadecanoic acid], the inhibition at 30 µg/mL in data set [1] was 70.7%.
For `CC(C)CCCCCCCCCCCCCCCC(=O)O` [iso-C19, 17-methylstearic acid], in data set [1], the inhibition at 30 µg/mL stood at 69.2%.
As to `CC(C)CCCCCCCCCCCCCC(=O)O` [iso-C17, 15-methylpalmitic acid], the inhibition at 30 µg/mL in data set [1] worked out at 70.8%.
The same measure, in the same setting: as for `CC(C)CCCCCCCCCC(=O)O` [iso-C13, 11-methyllauric acid], the figure is 71%.
In the case of `CO[C@@]12[C@H](COC(N)=O)C3=C(C(=O)C(C)=C(N)C3=O)N1C[C@@H]1N[C@@H]12` [MMC, mitomycin C], in data set [5] (Test I), the “Body wt. Fi.” value turned out to be 22.0, the “Body wt. In.” value worked out at 22.4, the Inhibition % was determined as 71.49% and the “Tumor wt. X ± SD” value came to 0.33 ± 0.24 g. Besides, in data set [5] (Test II), the “Body wt. Fi.” value is recorded as 21.1/21.1, the “Body wt. In.” value is 21.1/21.1, the Inhibition % came to 73.51% and the “Tumor wt. X ± SD” value is recorded as 0.30 ± 0.33 g.
For the molecule `CCC(C)CCCCCCCCCCCCCC(=O)O` (stereo not drawn) [anteiso-C18, 15-methylheptadecanoic acid], the inhibition at 30 µg/mL in data set [1] was found to be 71.7%.
Regarding `CCC(C)CCCCCCCCCC(=O)O` (stereo not drawn) [anteiso-C14, 11-methyltridecanoic acid], the inhibition at 30 µg/mL in data set [1] came out at 72.6%.
Turning to `O=P1(N(CCCl)CCCl)NCCCO1` (stereo not drawn) [CP, cyclophosphamide], in data set [6], the “ILS % (rate of increase in life span)” value is 22.86%, the life span amounted to 13.06 ± 3.03 days, the “mice No (>17 d)” value turned out to be 1 and the prolonged days stood at 2.44 ± 2.58 days.
As to `CC(C)CCCCCCCCCCC(=O)O` [iso-C14, 12-methyltridecanoic acid], the inhibition at 30 µg/mL in data set [1] worked out at 72.2%.
As usually defined, the viability is the share of living cells, or the viability signal relative to a control. The low end stands for a greater loss of cells, the high end for better survival. On to `O=P1(N(CCCl)CCCl)NCCCO1` (stereo not drawn) [CTX, Cytoxan], for which the body weight in. (initial) in the data set with Lewis mouse lung tumor (CTX 30 mg/kg i.p.) worked out at 21.2 g. Moreover, in the data set on Lewis mouse lung tumor (setting [7]), the TIR was 62.6%, the body weight fi. (final) was found to be 20.3 g and the “tumor weight mean ± SD” value came out at 0.71 ± 0.36 g. In addition, the viability in the data set with Lewis mouse lung tumor (CTX i.p. injection, 8-day period) is given as 70%.
For the molecule `CC(C)CCCCCCCCCCCCCCCCC(=O)O` [iso-C20, 18-methylnonadecanoic acid], in data set [1], the inhibition at 30 µg/mL stood at 62.6%.
